Source: patent publication US8802597B2, “Herbicidal pyrimidines” (E I du Pont de Nemours and Company, priority 2003, dated 2014)

How the values were obtained:
Type in all cases: in vivo
[1] = test system: rice flatsedge (Cyperus iria); assay: Test E flooded paddy water application; settings: Flood, 21 days, scale 0 to 100 (0 no effect, 100 complete control)
From the text: (§1) Three plastic pots (ca. 16-cm diameter) per rate were partially filled with sterilized Tama silt loam soil comprising a 35:50:15 ratio of sand, silt and clay and 2.6% organic matter. Separate plantings for each of the three pots were as follows. Seeds from the U.S. of ducksalad (Heteranthera limosa), smallflower umbrella sedge (Cyperus difformis) and purple redstem (Ammannia coccinea), were planted into one 16-cm pot for each rate. Seeds from the U.S. of rice flatsedge (Cyperus iria), bearded (brdd.) sprangletop (Leptochloa fusca ssp. fascicularis), one stand of 9 or 10 water seeded rice seedlings (Oryza sativa cv. ‘Japonica-M202’), and one stand of 6 transplanted rice seedlings (Oryza sativa cv. ‘Japonica-M202’) were planted into one 16-cm pot for each rate. Seeds from the U.S. of barnyardgrass (Echinochloa crus-galli), late watergrass (Echinochloa oryzicola), early watergrass (Echinochloa oryzoides) and junglerice (Echinochloa colona) were planted into one 16-cm pot for each rate. Plantings were sequential so that crop and weed species were at the 2.0 to 2.5-leaf stage at time of treatment.
(§2) Potted plants were grown in a greenhouse with day/night temperature settings of 29.5/26.7° C., and supplemental balanced lighting was provided to maintain a 16-hour photoperiod. Test pots were maintained in the greenhouse until test completion.
(§3) At time of treatment, test pots were flooded to 3 cm above the soil surface, treated by application of test compounds directly to the paddy water, and then maintained at that water depth for the duration of the test. Effects of treatments on rice and weeds were visually evaluated by comparison to untreated controls after 21 days. Plant response ratings, summarized in Table E, are based on a scale of 0 to 100 where 0 is no effect and 100 is complete control. A dash (-) response means no test result.

[2] = test system: ducksalad (Heteranthera limosa); assay: Test E flooded paddy water application; settings: Flood, 21 days, scale 0 to 100 (0 no effect, 100 complete control)
From the text: as §1, §2, §3

[3] = test system: barnyardgrass (Echinochloa crus-galli); assay: Test E flooded paddy water application; settings: Flood, 21 days, scale 0 to 100 (0 no effect, 100 complete control)
From the text: as §1, §2, §3

[4] = test system: junglerice (Echinochloa colona); assay: Test E flooded paddy water application; settings: Flood, 21 days, scale 0 to 100 (0 no effect, 100 complete control)
From the text: as §1, §2, §3

[5] = test system: late watergrass (Echinochloa oryzicola); assay: Test E flooded paddy water application; settings: Flood, 21 days, scale 0 to 100 (0 no effect, 100 complete control)
From the text: as §1, §2, §3

[6] = test system: transplanted rice seedlings (Oryza sativa cv. ‘Japonica-M202’); assay: Test E flooded paddy water application; settings: Flood, 21 days, scale 0 to 100 (0 no effect, 100 complete control)
From the text: as §1, §2, §3

[7] = test system: bearded (brdd.) sprangletop (Leptochloa fusca ssp. fascicularis); assay: Test E flooded paddy water application; settings: Flood, 21 days, scale 0 to 100 (0 no effect, 100 complete control)
From the text: as §1, §2, §3

[8] = test system: early watergrass (Echinochloa oryzoides); assay: Test E flooded paddy water application; settings: Flood, 21 days, scale 0 to 100 (0 no effect, 100 complete control)
From the text: as §1, §2, §3

[9] = test system: purple redstem (Ammannia coccinea); assay: Test E flooded paddy water application; settings: Flood, 21 days, scale 0 to 100 (0 no effect, 100 complete control)
From the text: as §1, §2, §3

[10] = test system: smallflower umbrella sedge (Cyperus difformis); assay: Test E flooded paddy water application; settings: Flood, 21 days, scale 0 to 100 (0 no effect, 100 complete control)
From the text: as §1, §2, §3

[11] = test system: water seeded rice seedlings (Oryza sativa cv. ‘Japonica-M202’); assay: Test E flooded paddy water application; settings: Flood, 21 days, scale 0 to 100 (0 no effect, 100 complete control)
From the text: as §1, §2, §3

[12] = test system: crabgrass (Digitaria sanguinalis); assay: Test A pre/postemergence
Outline: (§4)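 Seeds sown in loam–sand blend received a preemergence directed soil spray of test chemical in non-phytotoxic solvent with surfactant; same-formulation postemergence spray given concurrently to plants 2–10 cm tall at 1- to 2-leaf stage. Greenhouse ~ten days, then visual injury rating versus untreated controls, 0 (no effect) to 100 (complete control).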

[13] = test system: velvetleaf (Abutilon theophrasti); assay: Test A pre/postemergence
Outline: as §4

[14] = test system: barnyardgrass (Echinochloa crus-galli); assay: Test A pre/postemergence
Outline: as §4

[15] = test system: giant foxtail (Setaria faberi); assay: Test A pre/postemergence
Outline: as §4

[16] = test system: morningglory (Ipomoea spp.); assay: Test A pre/postemergence
Outline: as §4

[17] = test system: redroot pigweed (Amaranthus retroflexus); assay: Test A pre/postemergence
Outline: as §4

[18] = Postemergence, 125 g ai/ha, 0 to 100 scale (0 no effect, 100 complete control)
[19] = Postemergence, 500 g ai/ha, 0 to 100 scale (0 no effect, 100 complete control)
[20] = Preemergence, 125 g ai/ha, 0 to 100 scale where 0 is no effect and 100 is complete control, approximately ten days
[21] = Preemergence, 500 g ai/ha, 0 to 100 scale where 0 is no effect and 100 is complete control, approximately ten days

## CCOC(=O)c1nc(-c2ccc(C)cc2)nc(N)c1Cl [Compound 62]
[1]; 32 g ai/ha
  Flatsedge, Rice plant response rating: 0
[1]; 64 g ai/ha
  Flatsedge, Rice plant response rating: 0
[1]; 125 g ai/ha
  Flatsedge, Rice plant response rating: 45
[1]; 250 g ai/ha
  Flatsedge, Rice plant response rating: 65
[1]; 500 g ai/ha
  Flatsedge, Rice plant response rating: 100
[2]; 32 g ai/ha
  Ducksalad plant response rating: 100
[2]; 64 g ai/ha
  Ducksalad plant response rating: 100
[2]; 125 g ai/ha
  Ducksalad plant response rating: 100
[2]; 250 g ai/ha
  Ducksalad plant response rating: 100
[2]; 500 g ai/ha
  Ducksalad plant response rating: 100
[3]; 32 g ai/ha
  Barnyardgrass plant response rating: 0
[3]; 64 g ai/ha
  Barnyardgrass plant response rating: 0
[3]; 125 g ai/ha
  Barnyardgrass plant response rating: 0
[3]; 250 g ai/ha
  Barnyardgrass plant response rating: 50
[3]; 500 g ai/ha
  Barnyardgrass plant response rating: 100
[4]; 32 g ai/ha
  Junglerice plant response rating: 20
[4]; 64 g ai/ha
  Junglerice plant response rating: 30
[4]; 125 g ai/ha
  Junglerice plant response rating: 40
[4]; 250 g ai/ha
  Junglerice plant response rating: 50
[4]; 500 g ai/ha
  Junglerice plant response rating: 65
[5]; 32 g ai/ha
  Watergrass, Late plant response rating: 0
[5]; 64 g ai/ha
  Watergrass, Late plant response rating: 20
[5]; 125 g ai/ha
  Watergrass, Late plant response rating: 20
[5]; 250 g ai/ha
  Watergrass, Late plant response rating: 20
[5]; 500 g ai/ha
  Watergrass, Late plant response rating: 20
[6]; 32 g ai/ha
  Rice, Transplanted plant response rating: 0
[6]; 64 g ai/ha
  Rice, Transplanted plant response rating: 0
[6]; 125 g ai/ha
  Rice, Transplanted plant response rating: 0
[6]; 250 g ai/ha
  Rice, Transplanted plant response rating: 0
[6]; 500 g ai/ha
  Rice, Transplanted plant response rating: 30
[7]; 32 g ai/ha
  Sprangletop, Brdd. plant response rating: 0
[7]; 64 g ai/ha
  Sprangletop, Brdd. plant response rating: 0
[7]; 125 g ai/ha
  Sprangletop, Brdd. plant response rating: 30
[7]; 250 g ai/ha
  Sprangletop, Brdd. plant response rating: 45
[7]; 500 g ai/ha
  Sprangletop, Brdd. plant response rating: 75
[8]; 32 g ai/ha
  Watergrass, Early plant response rating: 0
[8]; 64 g ai/ha
  Watergrass, Early plant response rating: 0
[8]; 125 g ai/ha
  Watergrass, Early plant response rating: 0
[8]; 250 g ai/ha
  Watergrass, Early plant response rating: 0
[8]; 500 g ai/ha
  Watergrass, Early plant response rating: 0
[9]; 32 g ai/ha
  Redstem plant response rating: 75
[9]; 64 g ai/ha
  Redstem plant response rating: 85
[9]; 125 g ai/ha
  Redstem plant response rating: 85
[9]; 250 g ai/ha
  Redstem plant response rating: 95
[9]; 500 g ai/ha
  Redstem plant response rating: 100
[10]; 32 g ai/ha
  Sedge, Umbrella plant response rating: 70
[10]; 64 g ai/ha
  Sedge, Umbrella plant response rating: 80
[10]; 125 g ai/ha
  Sedge, Umbrella plant response rating: 95
[10]; 250 g ai/ha
  Sedge, Umbrella plant response rating: 100
[10]; 500 g ai/ha
  Sedge, Umbrella plant response rating: 100
[11]; 32 g ai/ha
  Rice, Water Seeded plant response rating: 0
[11]; 64 g ai/ha
  Rice, Water Seeded plant response rating: 0
[11]; 125 g ai/ha
  Rice, Water Seeded plant response rating: 0
[11]; 250 g ai/ha
  Rice, Water Seeded plant response rating: 10
[11]; 500 g ai/ha
  Rice, Water Seeded plant response rating: 60
[12]; [18]
  Plant response rating, Crabgrass: 0
[12]; [19]
  Plant response rating, Crabgrass: 35
[12]; [20]
  Plant response rating, Crabgrass: 0
[12]; [21]
  Plant response rating, Crabgrass: 60
[13]; [18]
  Plant response rating, Velvetleaf: 90
[13]; [19]
  Plant response rating, Velvetleaf: 95
[13]; [20]
  Plant response rating, Velvetleaf: 0
[13]; [21]
  Plant response rating, Velvetleaf: 75
[14]; [18]
  Plant response rating, Barnyardgrass: 15
[14]; [19]
  Plant response rating, Barnyardgrass: 80
[14]; [20]
  Plant response rating, Barnyardgrass: 0
[14]; [21]
  Plant response rating, Barnyardgrass: 45
[15]; [18]
  Plant response rating, Foxtail, Giant: 0
[15]; [19]
  Plant response rating, Foxtail, Giant: 80
[15]; [20]
  Plant response rating, Foxtail, Giant: 0
[15]; [21]
  Plant response rating, Foxtail, Giant: 0
[16]; [18]
  Plant response rating, Morningglory: 10
[16]; [19]
  Plant response rating, Morningglory: 35
[16]; [20]
  Plant response rating, Morningglory: 0
[16]; [21]
  Plant response rating, Morningglory: 35
[17]; [18]
  Plant response rating, Pigweed: 30
[17]; [19]
  Plant response rating, Pigweed: 60
[17]; [20]
  Plant response rating, Pigweed: 0
[17]; [21]
  Plant response rating, Pigweed: 75
